# Results published in patent US20260355196A1, “INHIBITORS AND DEGRADERS OF PIP4K PROTEIN” (Larkspur Biosciences, Inc., priority 2023, published 2026).
# Target: T1, PIP4K2C (Homo sapiens, UniProt Q8TBX8)
# T1 sequence (Q8TBX8 1-421): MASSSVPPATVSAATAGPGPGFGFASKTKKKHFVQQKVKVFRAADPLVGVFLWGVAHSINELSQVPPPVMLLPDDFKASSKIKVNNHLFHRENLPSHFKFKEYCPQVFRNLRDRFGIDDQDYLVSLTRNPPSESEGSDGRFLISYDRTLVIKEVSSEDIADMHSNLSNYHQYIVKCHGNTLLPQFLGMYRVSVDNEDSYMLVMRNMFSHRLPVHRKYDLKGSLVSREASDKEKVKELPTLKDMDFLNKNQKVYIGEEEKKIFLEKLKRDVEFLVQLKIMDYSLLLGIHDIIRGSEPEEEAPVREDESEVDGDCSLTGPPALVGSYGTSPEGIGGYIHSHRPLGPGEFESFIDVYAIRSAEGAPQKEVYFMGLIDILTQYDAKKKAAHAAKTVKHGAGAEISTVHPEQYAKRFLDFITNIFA
# Experiment: Enzyme Binding Assay (KINOMEscan): active site-directed competition binding to an immobilized ligand
# Set-up: purchased Eurofins DiscoverX, San Diego, CA 87-0007-1094
# Conditions: 11-point dose response, duplicate, top concentration 5 micromolar; read-out: Pip4k2c Kd: IC50
# Procedure: Example B-1: Enzyme Binding Assays (KINOMEscan)
# PIP4K2C binding constants disclosed herein were determined using the proprietary Human PIP4K2C binding assay (Catalog number 87-0007-1094, Eurofins DiscoverX, San Diego, CA). This assay measures active site-directed competition binding to an immobilized ligand (see https://doi.org/10.1038/nbt1068, herein incorporated by reference in its entirety). Experiments were conducted using an 11-point dose response curve, in duplicate, with a top starting concentration of 5 micromolar; the Levenberg-Marquardt algorithm was used to fit a Hill equation to dose-response data to calculate IC50 values (see Table 5).
row,Structure (SMILES),IC50 [nM]
1,"NC(=O)[C@H]1CCC[C@@H](Nc2ncc(F)c(-c3ccn(-c4ccc(F)cc4)n3)n2)C1 (relative stereo) [Compound 42, cis-3-((5-fluoro-4-(1-(4-fluorophenyl)-1H-pyrazol-3-yl)pyrimidin-2-yl)amino)cyclohexane-1-carboxamide]",1000 to 5000
2,"NC(=O)[C@H]1CCC[C@@H](Nc2ncc(F)c(-c3cnn(-c4ccc(F)cc4)c3)n2)C1 (relative stereo) [Compound 43, cis-3-((5-fluoro-4-(1-(4-fluorophenyl)-1H-pyrazol-4-yl)pyrimidin-2-yl)amino)cyclohexane-1-carboxamide]",500 to 1000
3,"NC(=O)[C@@H]1CCC[C@H](Nc2ncc(F)c(C3CCCN(c4ccc(F)cc4)C3)n2)C1 (relative stereo) [Compound 91, cis-3-((5-fluoro-4-(1-(4-fluorophenyl)piperidin-3-yl)pyrimidin-2-yl)amino)cyclohexane-1-carboxamide]",< 500
4,"NC(=O)[C@@H]1CCC[C@H](Nc2ncc(F)c(-c3cccc(-c4cccc(=O)[nH]4)c3)n2)C1 (relative stereo) [Compound 112, cis-3-((5-fluoro-4-(3-(6-oxo-1,6-dihydropyridin-2-yl)phenyl)pyrimidin-2-yl)amino)cyclohexane-1-carboxamide]",< 500
5,"NC(=O)[C@H]1CCC[C@@H](Nc2ncc(Cl)c(C3CCN(C(=O)c4ccc(F)cc4)C3)n2)C1 (relative stereo) [Compound 135, cis-3-((5-chloro-4-(1-(4-fluorobenzoyl)pyrrolidin-3-yl)pyrimidin-2-yl)amino)cyclohexane-1-carboxamide]",< 500
6,"NC(=O)[C@@H]1CCC[C@H](Nc2ncc(Cl)c(-c3cccc(-n4ccccc4=O)c3)n2)C1 (relative stereo) [Compound 136, cis-3-((5-chloro-4-(3-(2-oxopyridin-1 (2H)-yl)phenyl)pyrimidin-2-yl)amino)cyclohexane-1-carboxamide]",< 500
7,"NC(=O)[C@@H]1CCC[C@H](Nc2ncc(F)c(-c3cccc(-c4ccc[nH]c4=O)c3)n2)C1 (relative stereo) [Compound 150, cis-3-((5-fluoro-4-(3-(2-oxo-1,2-dihydropyridin-3-yl)phenyl)pyrimidin-2-yl)amino)cyclohexane-1-carboxamide]",< 500
8,"NC(=O)[C@H]1CCC[C@@H](Nc2ncc(F)c(-c3cccc(C4COC4)c3)n2)C1 (relative stereo) [Compound 170, cis-3-((5-fluoro-4-(3-(oxetan-3-yl)phenyl)pyrimidin-2-yl)amino)cyclohexane-1-carboxamide]",< 500
9,"NC(=O)[C@H]1CCC[C@@H](Nc2ncc(F)c(-c3cccc(C4(O)COC4)c3)n2)C1 (relative stereo) [Compound 173, cis-3-((5-fluoro-4-(3-(3-hydroxyoxetan-3-yl)phenyl)pyrimidin-2-yl)amino)cyclohexane-1-carboxamide]",< 500
10,"CC(C)(O)c1cc(-c2nc(N[C@@H]3CCC[C@H](C(N)=O)C3)ncc2F)ccn1 (relative stereo) [Compound 177, cis-3-((5-fluoro-4-(2-(2-hydroxypropan-2-yl)pyridin-4-yl)pyrimidin-2-yl)amino)cyclohexane-1-carboxamide]",< 500
11,"CC(=O)N1CCCC(c2cccc(-c3nc(N[C@@H]4CCC[C@H](C(N)=O)C4)ncc3F)c2)C1 (relative stereo) [Compound 178, cis-3-((4-(3-(1-acetylpiperidin-3-yl)phenyl)-5-fluoropyrimidin-2-yl)amino)cyclohexane-1-carboxamide]",< 500
12,"NC(=O)[C@H]1CCC[C@@H](Nc2ncc(F)c(-c3cccc(-c4cc[nH]c(=O)c4)c3)n2)C1 (relative stereo) [Compound 200, cis-3-((5-fluoro-4-(3-(2-oxo-1,2-dihydropyridin-4-yl)phenyl)pyrimidin-2-yl)amino)cyclohexane-1-carboxamide]",< 500
13,"NC(=O)[C@H]1CCC[C@@H](Nc2ncc(F)c(-c3cccc(N4CCCOC4=O)c3)n2)C1 (relative stereo) [Compound 227, cis-3-((5-fluoro-4-(3-(2-oxo-1,3-oxazinan-3-yl)phenyl)pyrimidin-2-yl)amino)cyclohexane-1-carboxamide]",< 500
14,"NC(=O)[C@@H]1CCC[C@H](Nc2ncc(F)c(-c3ccnc(N4CCOCC4=O)c3)n2)C1 (relative stereo) [Compound 629, cis-3-((5-fluoro-4-(2-(3-oxomorpholino)pyridin-4-yl)pyrimidin-2-yl)amino)cyclohexane-1-carboxamide]",< 500
15,"NC(=O)C1CCC(Nc2ncc(Cl)c(-c3cccc(-c4ccccc4)c3)n2)CC1 (centres unmarked) [Compound 1, 4-((4-([1,1′-biphenyl]-3-yl)-5-chloropyrimidin-2-yl)amino)cyclohexane-1-carboxamide]",500 to 1000
16,"CN1CCC(C(=O)N2CCC(Nc3ncc(Cl)c(-c4cccc(-c5ccccc5)c4)n3)CC2)CC1 [Compound 3, (4-((4-([1,1′-biphenyl]-3-yl)-5-chloropyrimidin-2-yl)amino)piperidin-1-yl)(1-methylpiperidin-4-yl)methanone]",< 500
17,"CC(=O)N1CCC(C(=O)N2CCC(Nc3ncc(Cl)c(-c4cccc(-c5ccccc5)c4)n3)CC2)CC1 [Compound 4, 1-(4-(4-((4-([1,1′-biphenyl]-3-yl)-5-chloropyrimidin-2-yl)amino)piperidine-1-carbonyl)piperidin-1-yl)ethan-1-one]",< 500
18,"O=C(CC1CCNCC1)N1CCC(Nc2ncc(Cl)c(-c3cccc(-c4ccccc4)c3)n2)CC1 [Compound 5, 1-(4-((4-([1,1′-biphenyl]-3-yl)-5-chloropyrimidin-2-yl)amino)piperidin-1-yl)-2-(piperidin-4-yl)ethan-1-one]",< 500
19,"O=C(CCC1CCNCC1)N1CCC(Nc2ncc(Cl)c(-c3cccc(-c4ccccc4)c3)n2)CC1 [Compound 7, 1-(4-((4-([1,1′-biphenyl]-3-yl)-5-chloropyrimidin-2-yl)amino)piperidin-1-yl)-3-(piperidin-4-yl)propan-1-one]",< 500
20,"O=C(C1CCC2(CCNCC2)CC1)N1CCC(Nc2ncc(Cl)c(-c3cccc(-c4ccccc4)c3)n2)CC1 [Compound 11, (4-((4-([1,1′-biphenyl]-3-yl)-5-chloropyrimidin-2-yl)amino)piperidin-1-yl)(3-azaspiro[5.5]undecan-9-yl)methanone]",< 500

# Continued, values first:
row,IC50 [nM],Structure (SMILES)
1,1000 to 5000,"NC(=O)[C@@H]1CCC[C@H](Nc2ncc(F)c(-c3ccn(C4CCCCC4)n3)n2)C1 (relative stereo) [Compound 113, cis-3-((4-(1-cyclohexyl-1H-pyrazol-3-yl)-5-fluoropyrimidin-2-yl)amino)cyclohexane-1-carboxamide]"
2,< 500,"NC(=O)[C@@H]1CCC[C@H](Nc2ncc(F)c(-c3cccc(N4CCOCC4=O)c3)n2)C1 (relative stereo) [Compound 269, cis-3-((5-fluoro-4-(3-(3-oxomorpholino)phenyl)pyrimidin-2-yl)amino)cyclohexane-1-carboxamide]"
3,< 500,"NC(=O)[C@@H]1CCC[C@H](Nc2ncc(F)c(-c3cccc(N4CCOCC4=O)n3)n2)C1 (relative stereo) [Compound 627, cis-3-((5-fluoro-4-(6-(3-oxomorpholino)pyridin-2-yl)pyrimidin-2-yl)amino)cyclohexane-1-carboxamide]"
4,< 500,"O=C(C1CCNCC1)N1CCC(Nc2ncc(Cl)c(-c3cccc(-c4ccccc4)c3)n2)CC1 [Compound 2, (4-((4-([1,1′-biphenyl]-3-yl)-5-chloropyrimidin-2-yl)amino)piperidin-1-yl)(piperidin-4-yl)methanone]"
5,< 500,"CC(=O)N1CCC(CC(=O)N2CCC(Nc3ncc(Cl)c(-c4cccc(-c5ccccc5)c4)n3)CC2)CC1 [Compound 6, 1-(4-((4-([1,1′-biphenyl]-3-yl)-5-chloropyrimidin-2-yl)amino)piperidin-1-yl)-2-(1-acetylpiperidin-4-yl)ethan-1-one]"
6,< 500,"CC(=O)N1CCC(CCC(=O)N2CCC(Nc3ncc(Cl)c(-c4cccc(-c5ccccc5)c4)n3)CC2)CC1 [Compound 8, 1-(4-((4-([1,1′-biphenyl]-3-yl)-5-chloropyrimidin-2-yl)amino)piperidin-1-yl)-3-(1-acetylpiperidin-4-yl)propan-1-one]"
7,< 500,"CN1CCC(CC(=O)N2CCC(Nc3ncc(Cl)c(-c4cccc(-c5ccccc5)c4)n3)CC2)CC1 [Compound 9, 1-(4-((4-([1,1′-biphenyl]-3-yl)-5-chloropyrimidin-2-yl)amino)piperidin-1-yl)-2-(1-methylpiperidin-4-yl)ethan-1-one]"
8,< 500,"CN1CCC(CCC(=O)N2CCC(Nc3ncc(Cl)c(-c4cccc(-c5ccccc5)c4)n3)CC2)CC1 [Compound 10, 1-(4-((4-([1,1′-biphenyl]-3-yl)-5-chloropyrimidin-2-yl)amino)piperidin-1-yl)-3-(1-methylpiperidin-4-yl)propan-1-one]"
9,< 500,"CN1CCC2(CCC(C(=O)N3CCC(Nc4ncc(Cl)c(-c5cccc(-c6ccccc6)c5)n4)CC3)CC2)CC1 [Compound 12, (4-((4-([1,1′-biphenyl]-3-yl)-5-chloropyrimidin-2-yl)amino)piperidin-1-yl)(3-methyl-3-azaspiro[5.5]undecan-9-yl)methanone]"
